Our source for the GI50 and TGI values is PubChem BioAssay (NCI).

Where “and” joins values, the source holds several entries; their conditions need not be identical. Identical values can stand only once.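 Assay format: 96-well plates, 48-hour exposure. GI50 is the concentration that inhibits growth by half. At the TGI there is no net growth.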

What all share (experiment): growth of human tumour cells (NCI), 48 h
The subject of assay [1] is SNB-75 CNS.
In assay [2] the test system is A498 renal.
In assay [3] the test system is SK-MEL-28 melanoma.
In assay [4] the test system is KM12 colon.
Assay [5] concerns 786-0 renal.
Assay [6] concerns SK-MEL-5 melanoma.
Assay [7] deals with RPMI-8226 leukemia.
In assay [8] the test system is M14 melanoma.
For assay [9], the system named is K-562 leukemia.
The subject of assay [10] is ACHN renal.

`CC1(C)N=C(N)N=C(N)N1c1cccc(/C=C/C=C/c2cccc([N+](=O)[O-])c2)c1`: the GI50 is 6.88 µM in assay [1]; 13 µM in [2]; 7.1 µM in [3]; 2.59 µM in assay [4]; 21.3 µM in assay [5]; 2.96 µM in assay [6]. Besides, the GI50 in [7] is 1.31 µM; in assay [8], 13.6 µM; in [9], 3.29 µM; in assay [10], 75.7 µM. The TGI in [1] was determined as 21.5 µM; in [2], 39.3 µM; in [3] it was 20.5 µM; in assay [4], 15.5 µM; in [5], 52.9 µM; in assay [6] it was 12.5 µM. The TGI in assay [7] is 16.3 µM; in assay [8] it was 50.1 µM; in [9], 19.6 µM; in [10] it was more than 100 µM.
Regarding `CCOC(=O)CCC(NC(=O)c1ccc(N=Cc2nc3cc(C(F)(F)F)ccc3nc2-c2ccccc2)cc1)C(=O)OCC` (stereo not drawn), the GI50 in assay [1] was 3.64 µM; in [3] it was more than 100 µM; in assay [4], more than 100 µM; in assay [5], 30.8 µM; in assay [6], more than 100 µM; in [7], more than 100 µM. The GI50 in assay [8] is more than 100 µM; in assay [9] it was more than 100 µM; in assay [10], 46.3 µM. Besides, the TGI in assay [1] was 13 µM and 14.1 µM; in assay [2], 75 µM; in [3], more than 100 µM; in [4], 50 µM and > 100 µM; in assay [5] it was 18.9 µM and > 100 µM; in assay [6], 50 µM and > 100 µM. The TGI in assay [7] was more than 100 µM; in assay [8], 50 µM and > 100 µM; in assay [9], more than 100 µM; in assay [10], 50 µM and > 100 µM.
`CC(=O)[CH-]C(=O)c1ccccc1.CC(=O)[CH-]C(=O)c1ccccc1.CCN(CC)CC[O-].CCN(CC)CC[O-].Cl.[Ti+4]`: the GI50 in assay [1] is 21.9 µM; in assay [2], 26.2 µM; in assay [3], 32.9 µM; in [4] it was 20 µM; in assay [5] it was 45.5 µM; in [6], 27.9 µM. Moreover, the GI50 in [7] is 38.3 µM; in assay [8], 22.5 µM; in [9] it was 37.8 µM; in assay [10], 39.5 µM. Besides, the TGI is 47.3 µM in assay [1]; 72.5 µM in assay [2]; 92.6 µM in assay [3]; 59.6 µM in assay [4]; more than 100 µM in assay [5]; more than 100 µM in assay [6]. The TGI in assay [7] is more than 100 µM; in assay [8] it was 45.9 µM; in assay [9], more than 100 µM; in [10] it was more than 100 µM.
On to `NNC(=O)/C(=C/c1cccc([N+](=O)[O-])c1)NC(=O)c1ccccc1`, for which the TGI in assay [1], in assay [2], in assay [3], in [4], in assay [5] and in assay [6] was more than 100 µM each time. Besides, the TGI in assay [7], in assay [8], in assay [9] and in assay [10] was more than 100 µM each time.
On to `CNC(=O)OCc1nc(SC(C)C)n(C)c1COC(=O)NC`, for which the TGI in assay [1], in assay [2], in assay [3], in assay [4], in assay [5] and in assay [6] was more than 100 µM each time. The TGI in [7], in assay [8], in [9] and in assay [10] was more than 100 µM in each case.
`O=C1CC(=O)N(C2CCCCC2)C(=O)N1c1ccccc1S(=O)(=O)Oc1ccccc1`: the TGI was more than 100 µM in [1]; more than 100 µM in assay [2]; more than 100 µM in [3]; more than 100 µM in assay [4]; 33.3 µM in assay [5]; more than 100 µM in assay [6]. Also, the TGI in assay [7] was 97.1 µM; in assay [8], more than 100 µM; in assay [9], 85.9 µM; in assay [10], 36.5 µM.
Take `COc1cc(CCc2cc(NC(=O)c3ccc(N4C[C@@H](C)N[C@@H](C)C4)cc3)n[nH]2)cc(OC)c1`: the GI50 is 1.93 µM and 2.61 µM in assay [1]; 0.014 µM and < 0.0107 µM in assay [2]; > 10 µM and 7.74 µM in assay [3]; 0.0759 µM and 0.107 µM in assay [4]; > 10 µM and 6.16 µM in assay [5]; 9.72 µM and 3.83 µM in assay [6]. Moreover, the GI50 in [7] is 4.82 µM and 4.65 µM; in assay [8], 7.13 µM and 2.77 µM; in assay [9], 6.89 µM and 4.18 µM; in assay [10], 9.45 µM and 4.41 µM. Further, the TGI was > 10 µM and 11.2 µM in assay [1]; 0.0838 µM and 0.12 µM in assay [2]; > 10 µM and 20.9 µM in assay [3]; > 10 µM and 11 µM in [4]; > 10 µM and 20.4 µM in [5]; > 10 µM and 12.7 µM in assay [6]. For the same molecule, the TGI in assay [7] was > 10 µM and 19.6 µM; in assay [8], > 10 µM and 10.9 µM; in [9], > 10 µM and 15.8 µM; in [10], > 10 µM and 15.3 µM.
Consider `C/C(=N\NC(=S)Nc1ccc(C(=O)O)cc1)c1ccccn1`, for which the TGI in assay [1] is 40 µM; in [2], 50.7 µM; in assay [3] it was more than 100 µM; in [4], 68.9 µM; in assay [5], 43.3 µM; in assay [6], 32.8 µM. Besides, the TGI was 76.6 µM in [7], 28.7 µM in assay [8], more than 100 µM in assay [9] and 30.4 µM in assay [10].
For `CCOC(=O)C1C=C2O[C@@H]3OC4(CCCCC4)O[C@@H]3C2[C@H]2C(=O)C=CC(=O)[C@@]12C(=O)OC` (stereo partly drawn), the TGI in assay [1] was 35.4 µM; in assay [2] it was 32.6 µM; in [3], 30 µM; in [4] it was 27.8 µM; in [5], 18.7 µM; in assay [6], 33.9 µM. Besides, the TGI in [7] is 8.06 µM; in [8], 30.1 µM; in [9], 34.2 µM; in assay [10], 32.2 µM.
For the molecule `CCCCCCCCCCCCCCCCCCNC(=O)[C@H]1CSC(c2ccc(OC)c(F)c2)N1` (stereo partly drawn), the GI50 in assay [1] was 3.1 µM; in [3] it was 1.42 µM; in assay [4], 2.34 µM; in [5] it was 7.18 µM; in assay [6] it was 2.92 µM; in assay [7] it was 0.435 µM. Further, the GI50 was 1.43 µM in assay [8], 2 µM in assay [9] and more than 36.8 µM in assay [10]. In addition, the TGI in assay [1] was 14.1 µM; in assay [2], more than 38.3 µM; in assay [3], 3.52 µM; in assay [4] it was 7.9 µM; in [5], more than 46.2 µM; in assay [6] it was 10.3 µM. For the same molecule, the TGI in assay [7] was 1.91 µM; in assay [8] it was 3.5 µM; in assay [9], 11.2 µM; in assay [10] it was more than 52.1 µM.
